Measurements published in patent US7071222B2, “Preparation containing a combination of 5-methylisoxazole-4-carboxylic acid-(4-trifluoromethyl)-anilide and N-(4-trifluoromethylphenyl)2-cyano-3-hydroxycrotonic acid amide” (Sanofi-Aventis Deuschland GmbH, priority 1996, dated 2006).

Assays:
[1] = Oral administration of compound 1 or compound 2 on its own (background statement); type: in vivo; settings: 5 mg or 10 mg per kg, each compound on its own
[2] = tested on: Adjuvant-induced arthritis; experiment: Adjuvant-induced arthritis, modification in accordance with Perper; type: in vivo, rats of a Lewis strain; settings: Compound 1 10 mg/kg of rat, Compound 2 0 mg/kg; oral once daily day 1-12; determined day 18; vs control group
Protocol: Adjuvant-induced arthritis, modification in accordance with […] (Proc. Soc. exp. Biol. Med. 137, 506 (1971)) Male rats of a Lewis strain (Moellegard, Denmark) having a body weight of from 160 to 210 g are used as the experimental animals. On the 1st day, the animals are injected subcutaneously, into the tail root, with complete Freund's adjuvant containing a suspension of Mycobacterium butyricum in heavy paraffin oil (Difco; […] in paraffin oil; Merck). Compounds 1 and 2 are suspended in carboxymethyl cellulose (1% in water) and this suspension is administered orally. The compounds are administered once daily from the 1st to the 12th day of the experiment. The paw volume and the arthritis index are determined on the 18th day. The severity of the disorder is determined by measuring the volumes of both hind paws. The measurement is carried out by the water displacement method, using a 2060 plethysmometer (Rhema-Labortechnik, Hofheim, Germany). In addition, the arthritis index is determined on the 18th day after injection. [table] Animals forming a control group are only given the solvent (1% carboxymethyl cellulose in water). 6 animals are used for each dose and in the control group. A reduction in the increase in paw volume and a decrease in the arthritis index, as compared with the untreated control group, are used as the criteria for an effect having been achieved.

Structure (SMILES)	effect of oral administration, compound on its own [1]	Decrease in arthritis index [2] [%]	Decrease in paw volume [2] [%]
C/C(O)=C(\C#N)C(=O)Nc1ccc(C(F)(F)F)cc1 [Compound 2, N-(4-trifluoromethylphenyl)-2-cyano-3-hydroxycrotonamide]	does not have any significant effect	–	–
Cc1oncc1C(=O)Nc1ccc(C(F)(F)F)cc1 [Compound 1, 5-methyl-4′-trifluoromethyl-4-isoxazolecarboxanilide]	does not have any significant effect	58	74
